Laboratory results published in patent US9513280B2, “Microfluidic biological barrier model and associated method” (The University of Utah Research Foundation, priority 2012, dated 2016).
Like-named read-outs stand apart in the source and are kept apart here.

Tested on: co-cultured μBBB models (bEnd.3 endothelial cells and C8-D1A astrocytes)
Conditions: for period of transient TEER drop: co-cultured μBBB on day 4
Procedure: To evaluate the fabricated μBBB system, three methods were employed: (1) Cell imaging to observe structure and morphology, (2) TEER levels to evaluate cell confluence and tight junction integrity, and (3) permeability assays to evaluate barrier selectivity. Cells were imaged with a Live/Dead assay to verify cell viability, and immunostained to look at expression of astrocyte marker GFAP and tight junction component […] (ZO-1). TEER was measured as an indicator of cell confluence and tight junction integrity, with time to maximum TEER being indicative of BBB development time. Fluxes of fluorescent-labeled tracer molecules were measured to assess permeability to larger solutes. […] Permeability was measured in μBBB models exposed to DMEM:F12 media with elevated pH (>10) for 4 h.
Over the course of the μBBB model evaluation experiments, TEER was measured twice a day to monitor cell confluence and development of tight junctions. For measurement of TEER, voltage and current electrode wires were connected via an electrode adaptor (WPI) to an EVOM2 epithelial voltohmmeter (WPI). The EVOM2 passes a constant 10 μA AC current at 12.5 Hz while measuring resistance. To calculate TEER, initial D0 Background resistances Rb were subtracted from total resistance RC at each time point and normalized for area, giving TEER values in Ωcm^2 as in the following equation: TEER=(RC−Rb)A
TEER of transwell cultures were measured daily by placing them in an Endohm chamber (WPI) and connecting it to the EVOM2.

## NCCc1c[nH]cn1 [histamine]
100 μM histamine
  time for TEER to return to initial levels: within six minutes
  period of transient TEER drop: 5 to 7 min
150 μM histamine
  time for TEER to return to initial levels: ≤ 15 min
  period of transient TEER drop: 8 to 15 min
